Some test systems named below: A498 renal; BT-549 breast; DU-145 prostate; HOP-92 NSCLC; HT29 colon; IGROV1 ovarian; NCI-H23 lung; NCI-H522 lung; OVCAR-3 ovarian; OVCAR-4 ovarian; SK-MEL-2 melanoma; SK-OV-3 ovarian; SNB-19 CNS; T-47D breast; U251 CNS; UO-31 renal; SF-539 CNS.
Test in all cases: NCI-60 cell line screen, 48 h

Among the data in PubChem BioAssay (NCI) are TGI values, retold here.

Each structure is given as a SMILES string.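 These data come from cells grown in 96-well plates and exposed to compound for 48 hours at five concentrations. TGI: concentration producing complete growth inhibition.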 Where only a bound is given, the exact number is not on record here.

In the case of `Nc1ccc(-c2nc3ccccc3s2)cc1CO`, the TGI with A498 renal, with BT-549 breast, in the assay on DU-145 prostate, in the assay with HOP-92 NSCLC, with HT29 colon and in the assay on IGROV1 ovarian was above 100 µM in each case. For the same compound, the TGI with NCI-H23 lung, in the assay with NCI-H522 lung, in the assay with OVCAR-3 ovarian, with OVCAR-4 ovarian, with SK-MEL-2 melanoma and in the assay with SK-OV-3 ovarian was above 100 µM in each case. Also, the TGI in the assay on SNB-19 CNS, in the assay on T-47D breast, in the assay with U251 CNS and in the assay with UO-31 renal was above 100 µM in each case.
Consider `Cc1csc2nc(-c3cc([N+](=O)[O-])c(Cl)cc3Cl)c(/C=N/N=C(N)N)n12`, for which the TGI in the assay on A498 renal stood at 35 µM; with BT-549 breast, 29.5 µM; in the assay on DU-145 prostate, 32.3 µM; with HOP-92 NSCLC it was 32.1 µM; in the assay with HT29 colon, 30.5 µM; in the assay with IGROV1 ovarian, 30 µM. In addition, the TGI was determined as 33 µM with NCI-H23 lung; 29.4 µM with NCI-H522 lung; 43.6 µM with OVCAR-3 ovarian; 29.8 µM in the assay on OVCAR-4 ovarian; 35.1 µM with SF-539 CNS; 26.1 µM in the assay on SK-MEL-2 melanoma. The TGI in the assay with SNB-19 CNS amounted to 36.5 µM; in the assay with T-47D breast, 33.1 µM; in the assay on U251 CNS, 30.5 µM; in the assay on UO-31 renal it was 29.4 µM.
As for `CN(C)c1n2c3ccc([N+](=O)[O-])cc3n3c(N(C)C)[n+]4ccccc4c3c2c2cccc[n+]12`, the TGI with A498 renal, in the assay on BT-549 breast, in the assay on DU-145 prostate, in the assay with HOP-92 NSCLC, with HT29 colon and in the assay with IGROV1 ovarian was above 100 µM in each case. Besides, the TGI with NCI-H23 lung, with NCI-H522 lung, with OVCAR-3 ovarian, with OVCAR-4 ovarian, in the assay on SK-MEL-2 melanoma and in the assay on SK-OV-3 ovarian was above 100 µM each time. The TGI with SNB-19 CNS, with T-47D breast, in the assay with U251 CNS and with UO-31 renal was above 100 µM each time.
On to `CC1(C)CC(=O)c2c(-c3ccc(Cl)cc3)c(C#N)c(=S)n(C3OC(CO)C(O)C(O)C3O)c2C1` (stereo not given), for which the TGI with A498 renal is above 100 µM; with BT-549 breast, above 100 µM; in the assay with DU-145 prostate it was above 100 µM; in the assay with HOP-92 NSCLC, 96.7 µM; in the assay with HT29 colon, above 100 µM; in the assay with IGROV1 ovarian, above 100 µM. The TGI in the assay with NCI-H23 lung was above 100 µM; with NCI-H522 lung, above 100 µM; in the assay with OVCAR-3 ovarian, 90.7 µM; in the assay with OVCAR-4 ovarian, above 100 µM; with SF-539 CNS, above 100 µM; in the assay with SK-MEL-2 melanoma, 43.9 µM. In addition, the TGI was above 100 µM with SNB-19 CNS, 89.6 µM with T-47D breast, above 100 µM in the assay with U251 CNS and 98.8 µM with UO-31 renal.
As to `COc1cc(-c2nc(N)c(C#N)c3c2CCS(=O)(=O)c2ccc(C)cc2-3)cc(OC)c1OC`, the TGI was 69.8 µM with A498 renal; above 100 µM in the assay on BT-549 breast; above 100 µM in the assay with DU-145 prostate; 54.8 µM in the assay on HOP-92 NSCLC; above 100 µM in the assay on HT29 colon; above 100 µM in the assay with IGROV1 ovarian. Moreover, the TGI with NCI-H23 lung is above 100 µM; with NCI-H522 lung, above 100 µM; in the assay on OVCAR-3 ovarian, above 100 µM; in the assay with OVCAR-4 ovarian, above 100 µM; in the assay on SK-MEL-2 melanoma, above 100 µM; in the assay on SNB-19 CNS it was 29.5 µM. The TGI with T-47D breast, with U251 CNS and with UO-31 renal was above 100 µM in each case.
As for `Nc1ccc(Oc2ccc(C34CC5C6CC7(c8ccc(Oc9ccc(N)cc9)cc8)CC5C(C3)C(C7)C6C4)cc2)cc1`, the TGI in the assay on A498 renal, in the assay with BT-549 breast, in the assay on DU-145 prostate, with HOP-92 NSCLC, with HT29 colon and in the assay on IGROV1 ovarian was above 100 µM throughout. Also, the TGI with NCI-H23 lung, in the assay on NCI-H522 lung, in the assay with OVCAR-3 ovarian, with OVCAR-4 ovarian, with SK-MEL-2 melanoma and in the assay with SNB-19 CNS was above 100 µM throughout. The TGI in the assay on T-47D breast, in the assay with U251 CNS and with UO-31 renal was above 100 µM in each case.
For `CCCCC/C=C\C=C\CCCCCCCCC(=O)OC`, the TGI in the assay with A498 renal, in the assay with BT-549 breast, in the assay on DU-145 prostate, in the assay with HOP-92 NSCLC, in the assay on HT29 colon and in the assay on IGROV1 ovarian was above 100 µM throughout. For the same compound, the TGI with NCI-H23 lung, in the assay on OVCAR-3 ovarian, with OVCAR-4 ovarian, in the assay with SF-539 CNS, with SK-MEL-2 melanoma and with SK-OV-3 ovarian was above 100 µM each time. Moreover, the TGI was above 100 µM in the assay on SNB-19 CNS, above 100 µM in the assay on T-47D breast, above 100 µM in the assay with U251 CNS and 31.3 µM with UO-31 renal.
